Measured values: patent US8420777B2, “Compounds that inhibit Hsp90 protein-protein interactions with IAP proteins” (University of Massachusetts, priority 2004, dated 2013)

Experiments:
[1] = test system: U937, K562, HL60, THP1 AML cell lines; assay: MTT cell viability in AML cell lines; format: cell-based, human
Procedure: FIG. 30 is a graph depicting killing activity of survivin K79-G83 in AML cells. The indicated human AML cell lines (U937, K562, HL60, and THP1) were incubated with scrambled (SEQ ID NO:28) or Survivin (SEQ ID NO:20) peptides and evaluated for cell viability by MTT.
The effect of the K79-G83 Survivin peptide was characterized in more detail for anti-tumor activity in AML. The K79-L87 (SEQ ID NO:19) and K79-G83 peptides (SEQ ID NO:20) were incubated with AML cells, and cell viability was measured using MTT.

[2] = test system: HeLa cells; assay: Apoptosis by hypodiploid DNA content, propidium iodide flow cytometry; format: cell-based, Human; details: 24 hours
Procedure: For determination of apoptosis by hypodiploid DNA content, various tumor cell lines were incubated with increasing concentrations of the cell permeable control scrambled (SEQ ID NO:25) or Survivin peptide (SEQ ID NO:19), harvested after 24 hours (floaters plus attached cells) fixed in 70% ethanol, and stained with 10 μg/ml propidium iodide plus 100 μg/ml RNAse A and 0.05% Triton™ X-100 in PBS, pH 7.4. Cultures were analyzed for DNA content by flow cytometry. For colorimetric quantification of cell viability, an MTT assay was used. Various tumor cell lines were incubated with increasing concentrations of the cell permeable retro-inverso control scrambled P4 or the Survivin-specific P3 peptide, incubated for 24 hours at 37° C. washed twice with Bruffs Media, and 4,5-dimethylthiazol-2-yl)-2,5-diphenyltetrazolium bromide (MTT) (Sigma, St. Louis, Mo.) was added at 5 mg/ml. Decrease in cell viability was analyzed for loss of colorimetric absorption at OD405.
HeLa cells were incubated with the indicated increasing concentrations of the cell permeable Control (scrambled) or Survivin peptide, harvested after 24 hours at 37° C., and analyzed by hypodiploid DNA content by propidium iodide staining and flow cytometry.
HeLa cells were incubated with chemotherapeutic drugs Taxol™ (10 μM) or adriamycin (300 nM), or cell permeable control peptide or the Survivin peptide, harvested after 24 hours, and analyzed for induction of apoptosis by hypodiploid DNA content by flow cytometry.

[3] = test system: HeLa cells; assay: Multiparametric flow cytometry of caspase activity and membrane integrity; format: cell-based, Human; details: increasing concentrations, 24 hours
Procedure: (§1) For multiparametric analysis of caspase-dependent cell death and loss of plasma membrane integrity, HeLa, MCF-7, or genetically engineered HCT116 cells (obtained from ATCC) were loaded with increasing concentrations of cell permeable control scrambled peptide or the Survivin peptide, harvested after culturing for 24 hours at 37° C., and analyzed for cell viability (propidium iodide, red channel) and active caspase-3 activity (CaspaTag™ from Intergen, Purchase, N.Y., green channel) by flow cytometry.
Cells were harvested after 24 hours of incubation with peptide and simultaneously analyzed for caspase activity by DEVDase activity (X-axis, green fluorescence) and cell membrane integrity by propidium iodide staining (Y-axis, red fluorescence). Cells in the upper right quadrant correspond to the population with elevated caspase activity and loss of cell membrane integrity (apoptotic).

[4] = test system: HeLa cells; assay: Annexin V labeling and propidium iodide multiparametric flow cytometry; format: cell-based, Human; details: increasing concentrations, eight hour incubation, 37° C.
Procedure: HeLa cell cultures were treated with the indicated increasing concentrations of P31 (Survivin) or P33 (Control; SEQ ID NO:25) peptides, harvested after an eight hour incubation at 37° C., and analyzed for multiparametric flow cytometry of Annexin V labeling (X-axis, a marker of apoptosis) and propidium iodide staining (Y-axis, a marker of cell death).

[5] = test system: telomerase; assay: TRAP assay on Hsp90 immunoprecipitates; format: cell-based; details: PC3 cells treated before immunoprecipitation
Procedure: Survivin peptide treated PC3 cells were also tested for telomerase activity, which requires Hsp90 (Holt et al., Genes Dev., 13:817-26 (1999)). Cells were treated as in above, immunoprecipitated with an antibody to Hsp90, and telomerase activity was determined by TRAP assay (Kim and Wu, Nucleic Acids Res., 25:2595-7 (1997)) of the immunoprecipitates. Telomerase activity is indicated by a ladder of telomere products.

[6] = test system: DU145, PC3, HeLa tumor cell lines; assay: MTT colorimetric viability assay, tumor cell lines; format: cell-based; details: increasing concentrations, 24 hours
Procedure: FIGS. 22A and 22B compares the effect of P31 (SEQ ID NO:19) or P33 (SEQ ID NO:25) on apoptosis of tumor cell lines (FIG. 22A) and normal cell lines (FIG. 22B). The following tumor cell lines DU145 (prostate cancer, circles), PC3 (prostate cancer, triangles), or HeLa (cervical carcinoma, squares) were treated with the indicated increasing concentrations of P31 peptide (solid symbols) or control P33 peptide (open symbols), harvested after 24 hours, and analyzed for cell viability using an MTT colorimetric assay. For normal cell types (right panel), HFF (human foreskin fibroblasts, squares), HGF (human fibroblasts, triangles) or WS-1 (human epithelial cells, circles) were treated with P31 (solid symbols) or control scrambled peptide P33, harvested after 24 hours and analyzed for overall cell viability by MTT colorimetric assay. All cell lines were from ATCC.

[7] = test system: PC3 cells; assay: Immunoblotting of Hsp90 client proteins; format: cell-based; details: 75 and 150 μM, 8 hours
Procedure: Survivin affects the stability and function of Hsp90 client proteins in tumor cells. PC3 cells were untreated or exposed to 75 and 150 μM concentrations of the survivin peptide (SEQ ID NO:19) (or control scrambled peptide; SEQ ID NO:25) for 8 hours and processed for immunoblotting against the Hsp90 client proteins survivin, AKT, and CDK-6. […] Conversely, the levels of Hsp90, Hsp70, and PCNA were not affected (FIG. 26A).

[8] = test system: HeLa cells; assay: Stability of Hsp90 client proteins and caspase-3 proform, Western blot; format: cell-based, Human; details: increasing concentrations, 24 hours
Procedure: To determine whether intracellular loading of the Survivin cell permeable peptide reproduced the effect of mAb 8E2 that disrupts the Survivin-Hsp90 interaction in destabilizing Survivin levels in vivo (FIG. 8), HeLa cells were loaded with the indicated increasing concentrations of cell permeable control (SEQ ID NO:25) or Survivin (SEQ ID NO:19) cell permeable peptide, harvested after 24 hours, and analyzed for stability of Hsp90 client proteins, Survivin and Akt. Polyclonal antibody to Akt was obtained from Cell Signaling Technology (Cat. No. 9272).

[9] = test system: HCT116 colorectal cancer cells (p53+/+ or p53-/-); assay: Multiparametric flow cytometry of caspase activity and membrane integrity; format: cell-based; parameters: dose or concentration left out as unconfirmed; details: 24 hours, p53+/+ versus p53-/-
Procedure: as §1
In these experiments, HCT116 colorectal cancer cells carrying wild type p53 (p53^+/+) or homozygously inactivated p53 (p53^−/−) (Bunz et al., Science, 282:1497-1501 (1998))) were incubated with […] of cell permeable Control (SEQ ID NO:25) or Survivin (SEQ ID NO:19) cell permeable peptide, harvested after 24 hours and analyzed by multiparametric flow cytometry of induction of caspase activity and loss of cell membrane integrity.

Sequence: RQIKIWFQNRRMKWKKKHSSGCAFL (Synthetically generated peptide) [P31]
- cell viability (MTT), killing of AML cell lines [1]: efficiently killed all AML cell lines tested
- cell viability reflected by hypodiploid DNA content ([2]; increasing concentrations, 37° C.): massive loss of cell viability
- cell population with hypodiploid DNA content (apoptotic) ([2]; peptides, comparison with chemotherapeutic drugs): results in the appearance of a large cell population with hypodiploid DNA content
- cell death (caspase activity and loss of plasma membrane integrity) [3]: induces cell death more efficiently than scrambled control peptide
- induction of apoptosis (Annexin V / propidium iodide) [4]: induced apoptosis in a dose-dependent manner
- telomerase activity [5]: abrogated telomerase activity
- cell death in cancer cell lines (MTT) [6]: effectively induced cell death in all three cancer cell lines
- Hsp90 client proteins (survivin, Akt, CDK-4, CDK-6) [7]: caused disappearance of multiple Hsp90 client proteins
- levels of Hsp90, Hsp70, and PCNA [7]: not affected
- levels of Survivin and Akt [8]: low levels of Survivin and Akt
- accumulation of cells with high caspase activity and loss of plasma membrane integrity [9]: indistinguishable between p53^+/+ and p53^−/− HCT116 cells
